According to ChEMBL document CHEMBL1130406, “Ortho-substituted benzofused macrocyclic lactams as zinc metalloprotease inhibitors” (J Med Chem, 1997):

Key:
Neprilysin = Neprilysin (Homo sapiens, UniProt P08473); experiment: Inhibition of neutral endopeptidase
Thermolysin = biological target: T1, Thermolysin (Bacillus thermoproteolyticus, UniProt P00800); experiment: Inhibitory concentration required to inhibit thermolysin
T1 sequence (P00800 whole entry): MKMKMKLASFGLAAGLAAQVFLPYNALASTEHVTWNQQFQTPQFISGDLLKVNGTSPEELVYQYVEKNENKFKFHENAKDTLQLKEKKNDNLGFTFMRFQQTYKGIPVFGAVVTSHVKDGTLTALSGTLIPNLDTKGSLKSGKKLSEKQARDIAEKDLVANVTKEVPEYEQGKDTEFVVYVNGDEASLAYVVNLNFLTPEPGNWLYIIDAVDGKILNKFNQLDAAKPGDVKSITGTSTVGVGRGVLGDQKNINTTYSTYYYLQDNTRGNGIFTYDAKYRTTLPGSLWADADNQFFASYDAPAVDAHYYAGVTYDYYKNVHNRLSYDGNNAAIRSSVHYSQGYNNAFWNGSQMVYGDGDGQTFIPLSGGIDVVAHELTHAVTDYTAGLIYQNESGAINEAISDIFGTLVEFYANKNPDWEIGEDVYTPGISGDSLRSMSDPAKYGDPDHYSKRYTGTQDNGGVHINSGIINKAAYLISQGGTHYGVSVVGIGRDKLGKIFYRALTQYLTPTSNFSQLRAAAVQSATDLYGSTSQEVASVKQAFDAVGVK

Neprilysin, sequence (P08473 whole entry): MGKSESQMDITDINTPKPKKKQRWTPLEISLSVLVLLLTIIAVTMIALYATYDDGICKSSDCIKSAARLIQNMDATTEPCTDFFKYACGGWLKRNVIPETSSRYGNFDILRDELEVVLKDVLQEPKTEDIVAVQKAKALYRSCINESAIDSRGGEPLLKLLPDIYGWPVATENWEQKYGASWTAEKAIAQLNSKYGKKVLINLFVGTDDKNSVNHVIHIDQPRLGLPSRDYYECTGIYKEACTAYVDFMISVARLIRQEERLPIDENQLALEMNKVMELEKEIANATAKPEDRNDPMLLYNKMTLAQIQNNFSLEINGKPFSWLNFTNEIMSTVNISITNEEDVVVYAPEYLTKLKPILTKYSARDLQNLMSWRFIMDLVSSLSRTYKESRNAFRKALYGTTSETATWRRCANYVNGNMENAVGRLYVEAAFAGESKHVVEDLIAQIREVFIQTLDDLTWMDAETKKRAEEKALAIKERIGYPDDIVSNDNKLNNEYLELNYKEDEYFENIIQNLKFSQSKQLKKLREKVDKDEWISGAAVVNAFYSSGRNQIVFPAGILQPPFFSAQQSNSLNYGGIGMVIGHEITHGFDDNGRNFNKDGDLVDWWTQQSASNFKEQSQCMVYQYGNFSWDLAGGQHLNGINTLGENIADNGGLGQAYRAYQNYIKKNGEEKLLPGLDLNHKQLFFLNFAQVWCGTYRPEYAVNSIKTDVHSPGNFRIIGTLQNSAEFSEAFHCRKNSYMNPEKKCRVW

Row | Compound | IC50 (Neprilysin) | IC50 (Thermolysin)
1 | O=C1N[C@H](C(=O)O)Cc2ccccc2CCCCCCC[C@@H]1CS | 900 nM | 
2 | O=C1N[C@H](C(=O)O)CCCCc2ccccc2C[C@@H]1CS | 0.9 nM | 68 nM
3 | O=C1N[C@H](C(=O)O)CCCCCc2ccccc2C[C@H]1CS | 4 nM | 4000 nM
4 | O=C(O)CNC(=O)C(CS)Cc1ccccc1 (configuration not stated) [THIORPHAN] |  | 9500 nM
5 | O=C1N[C@@H](C(=O)O)Cc2ccccc2CCCCCC[C@@H]1CS | 136 nM | 16000 nM
6 | O=C1N[C@H](C(=O)O)CCCCCc2ccccc2C[C@@H]1CS | 3 nM | 600 nM
7 | O=C1N[C@H](C(=O)O)CCCCc2ccccc2C[C@H]1CS | 7 nM | 2300 nM
8 | O=C1N[C@H](C(=O)O)Cc2ccccc2CCCCCC[C@@H]1CS | 67 nM | 40000 nM
9 | O=C1N[C@@H](C(=O)O)Cc2ccccc2CCCCCCC[C@@H]1CS | > 10000 nM | 60000 nM
10 | O=C1N[C@@H](C(=O)O)Cc2ccccc2CCCCC[C@@H]1CS | 99 nM | 49000 nM
11 | O=C1N[C@H](C(=O)O)CCCCCCc2ccccc2C[C@H]1CS | 27 nM | 1800 nM
12 | O=C1N[C@H](C(=O)O)CCCCCCc2ccccc2C[C@@H]1CS | 224 nM | 41000 nM
